In US4921871A, “Enolamides, pharmaceutical compositions and methods of use thereof for treating inflammation” (Warner-Lambert Company, priority 1987, dated 1990):

Target: T1, human leukocyte 5-lipoxygenase (Homo sapiens, UniProt P09917)
T1 construct: endogenous in cells; host or cells: leukocytes from fresh human blood
T1 sequence (P09917 1-674): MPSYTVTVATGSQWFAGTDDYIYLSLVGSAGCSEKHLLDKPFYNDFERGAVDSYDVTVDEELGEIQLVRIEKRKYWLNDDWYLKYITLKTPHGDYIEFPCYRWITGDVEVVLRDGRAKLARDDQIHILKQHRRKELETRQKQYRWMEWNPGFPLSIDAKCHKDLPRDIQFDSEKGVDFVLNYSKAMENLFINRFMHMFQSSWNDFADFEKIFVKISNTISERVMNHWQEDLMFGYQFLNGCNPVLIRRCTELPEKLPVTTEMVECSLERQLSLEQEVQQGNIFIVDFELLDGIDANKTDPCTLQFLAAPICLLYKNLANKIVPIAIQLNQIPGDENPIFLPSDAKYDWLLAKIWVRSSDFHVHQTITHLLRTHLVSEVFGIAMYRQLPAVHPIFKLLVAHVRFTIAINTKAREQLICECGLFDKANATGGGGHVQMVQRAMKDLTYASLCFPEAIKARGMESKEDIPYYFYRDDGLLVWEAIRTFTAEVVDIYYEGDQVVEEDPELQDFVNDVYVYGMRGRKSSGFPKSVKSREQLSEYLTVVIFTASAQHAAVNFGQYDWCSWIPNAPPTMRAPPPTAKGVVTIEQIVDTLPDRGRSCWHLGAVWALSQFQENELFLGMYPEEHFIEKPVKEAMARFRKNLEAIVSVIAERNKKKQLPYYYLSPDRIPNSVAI
Test: 5-Lipoxygenase assay in human leukocytes, formation of 5-HETE (5LOA; 5LOA1 or 5LOA2 not specified)
Assay type: cell-based
Source text: To Evaluate the Effect of Each Compounds as a 5-Lipoxygenase Inhibitor in Comparison to Standard Reference Agents in Human Leukocytes (5LOAl)
The purpose of this assay is to evaluate the activity of each compound as an inhibitor of human leukocyte 5-lipoxygenase.
Arachidonic acid and calcium ionophore A23l87 are obtained from Sigma (St. Louis, Mo.). Silica gel plates, GF are obtained from Analtech (Newark, Del.). Arachidonic acid, (1-^14 C) and 5-HETE (^3 H), 5 (S)-hydroxy-6-trans, 8,11,14-cis eicosatetraenoic acid, are obtained from New England Nuclear (Boston, Mass.). Six percent Dextran-70 in 0.9% NaCl is obtained from Cutter Labs (Berkeley, Calif.).
Fresh blood from normal adult men who had not received any drugs for at least the previous five days is obtained by the Community Research Clinic (WL/PD) using venipuncture and collected into heparinized vacuotainer tubes. To every 100 ml of pooled blood is added 25 ml of dextran solution (6% dextran -70 in 0.9% sodium chloride containing 3% dextrose) and this is mixed gently in a plastic cylinder. The mixture is left to stand at room temperature for at least 90 minutes. The upper layer which is rich in leukocytes and platelets is then carefully decanted into 50 ml plastic tubes and centrifuged at about 100×g for eight minutes in an IEC centrifuge and rotor number 269 (about 600 rpm). The supernatant fluid is discarded and the pellet is resuspended in 10 ml of 0.87% ammonium chloride for exactly two minutes. This procedure is to lyse completely contaminating red blood cells. Leukocytes are then separated by centrifugation for ten minutes. The pellet is washed three times by suspension in 20 ml PBS (sodium chloride, 7.1 g; Na2 HPO4, 1.15 g; KH2 PO4, 0.2 g, and KCl, 0.2 g/L) and centrifuged as before. The final pellet is suspended in PBS containing 0.87 mM CaCl2. Viability of the cells is then checked using trypan blue exclusion method and is found to be over 90%.
Leukocyte cells in suspension (0.98 ml) are incubated with or without test compounds for five minutes at 37° C. in a shaking water bath. At this time a 17 μl mixture is prepared per 1 ml of cell suspension: 100 mM arachidonic acid, 1 μl, 0.05 μCi ^14 C-arachidonic acid in 5 .rho.l; 1 mM calcium ionophore A23187, 10 μl (1). This mixture is added and the incubation continued for five minutes. The reaction is stopped by adding four volumes of absolute ethanol and the mixture is kept in ice for 30 minutes. The floculated precipitate is separated by centrifugation at about 37,000×g for 20 minutes (Beckman Instruments rotor number 40). The alcohol extract is taken to dryness under a stream of nitrogen and the residue is dissolved in 100-200 μl absolute ethanol. At the time any turbidity is removed by centrifugation. An aliquot (25-50 μl) is applied onto 20×20 cm silica gel TLC plate and developed using the following solvent system: diethyl ether, petroleum ether (2040° C.), acetic acid (50:50: 1 v/v). Zones of 1 cm apart are scraped from the TLC plate and transferred to mini-vials. Methanol (0.5 ml) is added to dissolve the radioactivity adsorbed to the silica gel and scintillation fluid (H.P., Beckman), 5 ml is then added and vials are counted in a liquid scintillation counter. A sample of ^3 H-5-HETE is applied and used for the identification of the formed 5-HETE.
Total radioactivity in the test as well as the control samples are normalized and the amount of 5-HETE present is calculated accordingly.
IC50 values are defined as the concentrations of test agents which caused a 50% inhibition of the formation of 5-HETE as compared to control and are determined by inspection of the concentration-response curves.
The formation of 5-HETE in human leukocytes is considered a measure of 5-lipoxygenase activity. The protocol is described in the following.
Fresh heparinized or EDTA treated human blood is mixed with 6% dextran-3% dextrose in isotonic saline in the ratio 0.25 ml dextran solution per 1.0 ml blood. […]

Row | 5LOA, % Inhibition (2.00 E -5 M) | 5LOA, % Inhibition (5.00 E -6 M) | Compound
1 | 13.8% | 5.5% | COc1c(C(=O)Nc2ccc(CCc3ccc(Cl)c(Cl)c3)cc2)sc2ccccc12 [Example 147, Benzo[b]thiophene-2-carboxamide, N-[4-[2-(3,4-dichlorophenyl)ethyl]phenyl]-3-methoxy]
2 | +2.2% | +1.4% | O=C(Nc1ccc(CCc2ccc(Cl)c(Cl)c2)cc1)C(=O)c1sc2ccccc2c1O [Example 136, Benzo[b]thiophene-2-acetamide, N-[4-[2-(3,4-dichlorophenyl)ethyl]phenyl]-3-hydroxy-α-oxo]
